The text below walks through data of patent EP1844039B1, “5-SUBSTITUTED QUINOLINE AND ISOQUINOLINE DERIVATIVES, A METHOD FOR THE PRODUCTION THEREOF AND THEIR USE AS ANTIPHLOGISTICS” (priority 2004, dated 2006).

pEC50, pIC50: −log10 of the molar value.

One series relates to IL-8. As to the kind of experiment: Inhibition of LPS-induced IL-8 secretion in THP-1 cells (ELISA of supernatant). In kind it is cell-based, menschlichen. The note with it: for Efficacy: Efficacy von Dexamethason = 100%; for pIC50: Homo sapiens. The source says: Die erfindungsgemäßen Verbindungen der allgemeinen Formel (IIa) und (IIb) hemmen die durch Lipopolysaccharid (LPS) induzierte Sekretion des Zytokins IL-8 in der menschlichen Monozytenzelline THP-1.
In general terms: ELISA stands for enzyme-linked immunosorbent assay.

Series [1] deals with Tyrosinaminotranferase (TAT). As to the kind of experiment: Induction of tyrosine aminotransferase (TAT) in hepatoma cells, 24 h treatment, photometric. Type of series: cell-based, Ratten. The note with it: rat hepatoma cells; for Efficacy: Efficacy von Dexamethason = 100%. The source says: Immunologische Grundlagen, Pharmakologie und Therapierichtlinien, Wissenschafliche Verlagsgesellschaft mbH, Stuttgart, 1998]. Ursache hierfür ist die Stimulation der Gluconeogenese in der Leber durch Induktion der hierfür verantwortlichen Enzyme und durch freie Aminosäuren, die aus dem Abbau von Proteinen (katabole Wirkung der Glucocorticoide) entstehen. Ein Schlüsselenzym des katabolen Stoffwechsels in der Leber ist die Tyrosinaminotranferase (TAT). Die Aktivität dieses Enzyms kann photometrisch aus Zellkulturen von behandelten Ratten-Hepatomzellen bestimmt werden. Die Zellen werden für 24 Stunden mit den Testsubstanzen behandelt und anschließend die TAT-Aktivität gemessen.

Series [2] is described as follows: Skin atrophy induction, 18 days daily local treatment, skin fold thickness measurement. The following applies: rats. In kind it is in vivo. The text has this:
Eine weitere, besonders nach lokaler Therapie, auftretende unerwünschte Wirkung ist die Induktion einer Hautatrophie, die zu einem Verlust der Haut an Dicke, Elastizität und letztlich der mechanischen Belastbarkeit der Haut führt. Das Potential einer Substanz, Hautatrophie zu induzieren, kann in Ratten bestimmt werden. Die Tiere werden dafür 18 Tage täglich lokal in äquieffektiven Dosierungen mit den Testsubstanzen behandelt. Mittels einer Hautfaltendickenmessung läßt sich die Abnahme der Hautdicke über die Behandlungszeit verfolgen.
Im Vergleich zu Clobetasolpropionat, das bei einer Konzentration von 0.01 % (maximale anti-inflammatorische Wirkung wird erreicht) zu einer 65%igen Reduktion der Hautdicke führt, ist bei Beispiel 1 bei einer Konzentration von 0.1 % (maximale anti-inflammatorische Wirkung wird erreicht) nur eine 41 %ige Reduktion festzustellen.
Dieser Vorteil ist auch gegenüber den Substanzen aus der Anmeldung WO03/082827 zu sehen; beispielsweise induziert das Eutomer von Beispiel 36 bereits bei einer Konzentration von 0.06% (maximale anti-inflammatorische Wirkung) eine 60%ige Reduktion der Hautdicke.

By pIC50 is commonly meant −log10 of the IC50, conventionally taken in molar units. A high value points to a small IC50. As a reminder, the pEC50 is −log10 of the EC50, conventionally taken in molar units. Read a low pEC50 as a large EC50. Take `Cc1ccc2c(NCC(O)(CC(C)(C)c3cc(F)cc4c3OCC4)C(F)(F)F)ccc(F)c2n1` (racemic) [Beispiel 10, 8-Fluor-5-[4-(5-Fluor-2,3-dihydrobenzofuran-7-yl)-2-hydroxy-4-methyl-2-trifluormethyl-pentylamino]-2-methylchinolin]: in the series with IL-8, the Efficacy is listed as 86% and the pIC50 was 7.68. In addition, in series [1], the pEC50 was 8.00 and the Efficacy is 92%.

In the series on IL-8, `C[C@]12C=CC(=O)C=C1CC[C@@H]1[C@@H]2[C@@H](O)C[C@@]2(C)[C@H]1CC[C@]2(O)C(=O)CO` [Prednisolon, reference compound] had an Efficacy of 96% and a pIC50 of 7.89. In series [1], the pEC50 was 8.59 and the Efficacy is given as 103%.

For `Cc1ccc2c(NCC(O)(CC(C)(C)c3cc(F)cc4c3OCC4)C(F)(F)F)cccc2n1` (racemic) [Beispiel 1, 5-[4-(5-Fluor-2,3-dihydrobenzofuran-7-yl)-2-hydroxy-4-methyl-2-trifluormethyl-pentylamino]-2-methylchinolin], in the series on IL-8, the Efficacy worked out at 74% and the pIC50 is 8.23. Further, in series [1], the pEC50 is 8.43 and the Efficacy is listed as 93%. Besides, in series [2] (concentration 0.1 % (maximal anti-inflammatory effect reached)), the “Reduktion der Hautdicke” value was determined as 41%.

On to `Cn1ccc2c(NCC(O)(CC(C)(C)c3cc(F)cc4c3OCC4)C(F)(F)F)cccc2c1=O` (racemic) [Beispiel 11, 5-[4-(5-Fluor-2,3-dihydrobenzofuran-7-yl)-2-hydroxy-4-methyl-2-trifluormethylpentylamino]-2-methylisochinol-1(2H)-on], for which, in the series on IL-8, the Efficacy stood at 61% and the pIC50 is 8.07. Also, in series [1], the pEC50 is 8.40 and the Efficacy is 86%.

Turning to `CCC(=O)O[C@]1(C(=O)CCl)[C@@H](C)C[C@H]2[C@@H]3CCC4=CC(=O)C=C[C@]4(C)[C@@]3(F)[C@@H](O)C[C@@]21C` [Clobetasolpropionat, reference compound], the “Reduktion der Hautdicke” value in series [2] (concentration 0.01 % (maximal anti-inflammatory effect reached)) was found to be 65%.
